Measurements taken from US20080254993A1, “Use of abscisic acid analogs to enhance growth control” (priority 2007, published 2008).

What was measured:
Kentucky bluegrass = experiment: Greenhouse study on Kentucky bluegrass: turfgrass height, clip weight, turfgrass quality (Example 1); type: in vivo; conditions: for Turfgrass quality: visual 0-9 scale, 9 best; for Turfgrass height and clip weight compared to the control (in words): trinexapac-ethyl 250 ppm, PBI-524 or PBI-429 50 ppm, alone or combined
Experimental: Greenhouse studies were conducted at the Research Farm of Valent BioSciences Corporation (Long Grove, Ill.). Grasses were grown in pots (18 cm in diameter and 18 cm in height) filled with Promix BX (available from Premier Horticulture Inc. Quakertown, Pa.). Grass was irrigated daily by an overhead irrigation system. The irrigation system was set up with multiple Tornado Mist Spray Heads (10 GPH at 40 PSI-Wetted diameter, NDS/Raindrip, Woodland Hills, Calif.). Spray heads were 1-meter apart from each other and 75 cm above grass canopy. Grass was cut with a scissor at 2.5 cm height and fertilizer (1 g/L all purpose fertilizer 20-20-20, available from The Scotts Company, Marysville, Ohio) was applied once per week.
(§1) Chemical solutions were prepared with distilled water. Tween 20 (0.05% v/v) was used as the surfactant when necessary. Trinexapac-ethyl (commercial product Primo Maxx, 11.3% active ingredient) was purchased from Syngenta Crop Protection Inc. (Greensboro, N.C.). ABA analogs, 8′ acetylene-ABA, acid (PBI-524), 8′ acetylene-ABA, ester (PBI-429), 8′ cyclopropane ester (PBI-696), or Tetralone, first carbon tail acetylene, ester (PBI-702), were obtained from Plant Biotechnology Institute, National Research Council of Canada (Saskatoon, Saskatchewan, Canada).
(§2) Chemical solutions were foliar applied to the turfgrass canopy at the rate of 4-gallons/1000 square foot (or 0.163 L/m^−2) immediately after finishing the preparation of solutions. After treatment, turfgrasses were arranged in a randomized complete block experimental design. Turfgrass quality, turfgrass height or clip fresh weight was measured on assigned dates. Turfgrass quality was visually rated on a 0-9 scale based on the color, uniformity, and density of the grass with 0 as the worst and 9 as the best. Turfgrass height was measured as the distance between canopy surface and soil. Clippings were collected form each plot; all plots were cut to a uniform height.
(§3) All experiments were randomized complete block experimental design. Data were analyzed by analysis of variance. Duncan's new multiple range tests at α=0.05 were used for mean separations.
Kentucky bluegrass sod was purchased from Deak sod farms, Inc. (Union Grove, Wis.). Grass was grown in the greenhouse for 94 days for establishment. Turfgrass was treated with one time foliar application of 50 ppm PBI-524, PBI-429, PBI-696 or PBI-702 alone or in combination with 250 ppm trinexapac-ethyl. The turfgrass was cut every 7 days. Turfgrass quality, turfgrass height, and clip weight were measured on days 7 and 35 after treatment.

tomato = experiment: Tomato leaf transpiration, greenhouse, porometer (Example 5); type: in vivo, Tomato (variety: Rutgers); conditions: for Tomato leaf transpiration (in words): PBI-429 25-200 ppm, trinexapac-ethyl 250-2000 ppm, alone or combined, 3-14 days after treatment
Source text: The effect of ABA analog (PBI-429) and trinexapac-ethyl combinations on transpiration and growth inhibition of dicotyledonous (tomato) was also examined in the greenhouse condition. Tomato (variety: Rutgers) seeds were sown in 18-cell flat filled with Promix PGX (available from Premier Horticulture Inc. Quakertown, Pa.) and grown for 3 weeks to allow for germination and initial growth. Plants were then transplanted into pots (18 cm in diameter and 18 cm in height), filled with Promix BX (available from Premier Horticulture Inc. Quakertown, Pa.), and grown for one week before the chemical treatment. Plants received daily irrigation and weekly fertilizer (1 g/L all purpose fertilizer 20-20-20, available from The Scotts Company, Marysville, Ohio). During the chemical treatment, a 24 mL (4 mL/plant) solution was foliar sprayed on the tomato canopy. Leaf transpiration rates were measured using a LI-1600 Steady State Porometer (LI-Cor, Lincoln, Nebr.) at 3, 5, 7, 10, and 14 days after treatment. The leaf transpiration rate was normalized to the percentage of control plant to minimize the experimental errors caused by environmental factors. Plant height was measured at 0, 3, 5, 7, 10 and 14 days after treatment. The growth rate was calculated based on the changes of plant height in certain intervals. The plants were harvested and the leaf number was counted at 14 days after treatment.

creeping bentgrass = experiment: Golf course green field study on creeping bentgrass with PBI-429: turfgrass height, soil moisture, turf quality (Example 2); type: in vivo, Penncross creeping bentgrass; conditions: for Soil moisture (in words) / Turfgrass height (in words): trinexapac-ethyl 25 ppm, PBI-429 50 ppm, alone or combined; for Turf quality: visual 0-9 scale, 9 best
Experimental: Field studies were conducted at the nursery green or the practice green at Countryside golf course (Mundelein, Ill.). Both greens were sand based and growing Penncross creeping bentgrass. Grass was managed with typical Illinois golf course management practices.
as §1, §2, §3
Trinexapac-ethyl (25 ppm) or PBI-429 (50 ppm) were one time foliar applied alone or in combination to creeping bentgrass in the golf course green to investigate their effect on turfgrass quality, growth inhibition and soil moisture.

[1] = 7 days after treatment, 50 ppm ABA analog alone
[2] = 35 days after treatment, 50 ppm ABA analog alone
[3] = 4 days after treatment, 50 ppm PBI-429 alone
[4] = 7 days after treatment, 50 ppm PBI-429 alone
[5] = 38 days after treatment, 50 ppm PBI-429 alone
[6] = 7 days after treatment, 250 ppm trinexapac-ethyl alone
[7] = 35 days after treatment, 250 ppm trinexapac-ethyl alone
[8] = 4 days after treatment, 25 ppm trinexapac-ethyl alone
[9] = 7 days after treatment, 25 ppm trinexapac-ethyl alone
[10] = 38 days after treatment, 25 ppm trinexapac-ethyl alone

## C#CC1(C)CC(=O)C=C(C)C1(O)/C=C/C(C)=C\C(=O)OC (centres unmarked) [PBI-429, 8′ acetylene-ABA, ester]
Kentucky bluegrass; [1]
  Clip Weight: 0.4 g
  Turfgrass height: 5.8 cm
  Turfgrass quality: 6.6
Kentucky bluegrass; 7 days after treatment
  Turfgrass height and clip weight compared to the control (in words): reduced turfgrass height and clip weight compared to the control
Kentucky bluegrass; [2]
  Clip Weight: 2.3 g
  Turfgrass height: 8.1 cm
  Turfgrass height and clip weight (in words): no longer reduced turfgrass height and clip weight
tomato; 25 ppm PBI-429, 3 days after treatment
  Transpiration: 53 % of control
tomato; 25 ppm PBI-429, 5 days after treatment
  Transpiration: 61 % of control
tomato; 25 ppm PBI-429, 7 days after treatment
  Transpiration: 75 % of control
tomato; 25 ppm PBI-429, 10 days after treatment
  Transpiration: 80 % of control
tomato; 25 ppm PBI-429, 14 days after treatment
  Transpiration: 103 % of control
tomato; 50 ppm PBI-429, 3 days after treatment
  Transpiration: 36 % of control
tomato; 50 ppm PBI-429, 5 days after treatment
  Transpiration: 32 % of control
tomato; 50 ppm PBI-429, 7 days after treatment
  Transpiration: 42 % of control
tomato; 50 ppm PBI-429, 10 days after treatment
  Transpiration: 69 % of control
tomato; 50 ppm PBI-429, 14 days after treatment
  Transpiration: 99 % of control
tomato; 100 ppm PBI-429, 3 days after treatment
  Transpiration: 34 % of control
tomato; 100 ppm PBI-429, 5 days after treatment
  Transpiration: 29 % of control
tomato; 100 ppm PBI-429, 7 days after treatment
  Transpiration: 38 % of control
tomato; 100 ppm PBI-429, 10 days after treatment
  Transpiration: 55 % of control
tomato; 100 ppm PBI-429, 14 days after treatment
  Transpiration: 98 % of control
tomato; 200 ppm PBI-429, 3 days after treatment
  Transpiration: 26 % of control
tomato; 200 ppm PBI-429, 5 days after treatment
  Transpiration: 24 % of control
tomato; 200 ppm PBI-429, 7 days after treatment
  Transpiration: 28 % of control
tomato; 200 ppm PBI-429, 10 days after treatment
  Transpiration: 34 % of control
tomato; 200 ppm PBI-429, 14 days after treatment
  Transpiration: 71 % of control
tomato
  Tomato leaf transpiration (in words): inhibited tomato leaf transpiration
Creeping bentgrass; [3]
  Soil moisture: 13.3%
  Turfgrass height: 6.7 mm
Creeping bentgrass; 4 days after treatment
  Soil moisture (in words): increase soil moisture
  Turfgrass height (in words): reduced turfgrass height more than the combination of trinexapac-ethyl and PBI-429
Creeping bentgrass; [4]
  Soil moisture: 13.1%
  Turfgrass height: 6.3 mm
  Turf quality: 7.1
Creeping bentgrass; 7 days after treatment
  Soil moisture (in words): increase soil moisture
  Turfgrass height (in words): reduced turfgrass height similarly
Creeping bentgrass; [5]
  Soil moisture: 12.9%
  Turfgrass height: 5.5 mm
  Turf quality: 8.0

## CCOC(=O)C1CC(=O)C(=C(O)C2CC2)C(=O)C1 (centres unmarked) [trinexapac-ethyl, reference compound]
Kentucky bluegrass; [6]
  Clip Weight: 0.5 g
  Turfgrass height: 6.0 cm
  Turfgrass quality: 6.6
Kentucky bluegrass; 7 days after treatment
  Turfgrass height and clip weight compared to the control (in words): reduced turfgrass height and clip weight compared to the control
Kentucky bluegrass; [7]
  Clip Weight: 1.7 g
  Turfgrass height: 7.2 cm
tomato; 250 ppm trinexapac-ethyl, 3 days after treatment
  Transpiration: 95 % of control
tomato; 250 ppm trinexapac-ethyl, 5 days after treatment
  Transpiration: 95 % of control
tomato; 250 ppm trinexapac-ethyl, 7 days after treatment
  Transpiration: 94 % of control
tomato; 250 ppm trinexapac-ethyl, 10 days after treatment
  Transpiration: 94 % of control
tomato; 250 ppm trinexapac-ethyl, 14 days after treatment
  Transpiration: 100 % of control
tomato; 500 ppm trinexapac-ethyl, 3 days after treatment
  Transpiration: 94 % of control
tomato; 500 ppm trinexapac-ethyl, 5 days after treatment
  Transpiration: 101 % of control
tomato; 500 ppm trinexapac-ethyl, 7 days after treatment
  Transpiration: 94 % of control
tomato; 500 ppm trinexapac-ethyl, 10 days after treatment
  Transpiration: 97 % of control
tomato; 500 ppm trinexapac-ethyl, 14 days after treatment
  Transpiration: 97 % of control
tomato; 1000 ppm trinexapac-ethyl, 3 days after treatment
  Transpiration: 100 % of control
tomato; 1000 ppm trinexapac-ethyl, 5 days after treatment
  Transpiration: 95 % of control
tomato; 1000 ppm trinexapac-ethyl, 7 days after treatment
  Transpiration: 94 % of control
tomato; 1000 ppm trinexapac-ethyl, 10 days after treatment
  Transpiration: 101 % of control
tomato; 1000 ppm trinexapac-ethyl, 14 days after treatment
  Transpiration: 100 % of control
tomato; 2000 ppm trinexapac-ethyl, 3 days after treatment
  Transpiration: 94 % of control
tomato; 2000 ppm trinexapac-ethyl, 5 days after treatment
  Transpiration: 96 % of control
tomato; 2000 ppm trinexapac-ethyl, 7 days after treatment
  Transpiration: 93 % of control
tomato; 2000 ppm trinexapac-ethyl, 10 days after treatment
  Transpiration: 91 % of control
tomato; 2000 ppm trinexapac-ethyl, 14 days after treatment
  Transpiration: 96 % of control
tomato
  Tomato leaf transpiration (in words): did not significantly inhibited tomato leaf transpiration
Creeping bentgrass; [8]
  Soil moisture: 11.2%
  Turfgrass height: 7.3 mm
Creeping bentgrass; 4 days after treatment
  Turfgrass height (in words): did not reduce creeping bentgrass height
Creeping bentgrass; [9]
  Soil moisture: 12.7%
  Turfgrass height: 6.5 mm
  Turf quality: 7.3
Creeping bentgrass; 7 days after treatment
  Soil moisture (in words): increase soil moisture
  Turfgrass height (in words): reduced turfgrass height similarly
Creeping bentgrass; [10]
  Soil moisture: 12.4%
  Turfgrass height: 6.0 mm
  Turf quality: 7.6
Creeping bentgrass; 38 days after treatment
  Soil moisture (in words): no longer effective
  Turfgrass height (in words): no longer effective
